According to the supplement of paper PMC4862054:

Key:
Conditions in all cases: incubation time: 72 h
BT-474 [1] = assay: normalised response (% of control), CellTiter-Glo; higher = more viable cells (100 = DMSO, 0 = benzethonium chloride kill control)
Procedure: (§1)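 DSRT, 72 h incubation, CellTox Green / CellTiter-Glo readout. Signal is normalised to DMSO and benzethonium chloride controls. Value is the normalised response at dose 3.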

MDA-MB-468 [2] = assay: as above
Procedure: as §1

HCC1143 [3] = assay: as above
Procedure: as §1

CAL-85-1 [4] = assay: as above
Procedure: as §1

MDA-MB-436 [5] = assay: as above
Procedure: as §1

DU-4475 [6] = assay: as above
Procedure: as §1

SK-BR-3 = assay: as above
Procedure: as §1

MDA-MB-453 [7] = assay: as above
Procedure: as §1

HCC1599 [8] = assay: as above
Procedure: as §1

MFM-223 [9] = assay: as above
Procedure: as §1

HCC1937 [10] = assay: as above
Procedure: as §1

BT-549 [11] = assay: as above
Procedure: as §1

MDA-MB-231 [12] = assay: as above
Procedure: as §1

CAL-148 [13] = assay: as above
Procedure: as §1

CAL-51 [14] = assay: as above
Procedure: as §1

Hs578T [15] = assay: as above
Procedure: as §1

MCF-10A [16] = assay: as above
Procedure: as §1

HDQ-P1 [17] = assay: as above
Procedure: as §1

CAL-120 [18] = assay: as above
Procedure: as §1

BT-474 [19] = assay: normalised response (% of control), CellTox Green; higher = less cell death (100 = DMSO, 0 = benzethonium chloride kill control)
Procedure, shortened: (§2)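 Breast cancer cell lines, seeded at 20 µl suspension per well, were incubated for 72 h in 384-well plates containing compound at 5 concentrations. These concentrations rose in 10-fold steps over a 10,000-fold range set for each compound. CellTox Green fluorescence (485/520 nm) was read, then CellTiter-Glo luminescence after 10 min at room temperature, and each plate was normalised to 0.1 % DMSO (100) and a positive kill control (0). Values are normalised signals, each at one concentration.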

MDA-MB-468 [20] = assay: as above
Procedure, shortened: as §2

HCC1143 [21] = assay: as above
Procedure, shortened: as §2

CAL-85-1 [22] = assay: as above
Procedure, shortened: as §2

MDA-MB-436 [23] = assay: as above
Procedure, shortened: as §2

DU-4475 [24] = assay: as above
Procedure, shortened: as §2

MDA-MB-453 [25] = assay: as above
Procedure, shortened: as §2

HCC1599 [26] = assay: as above
Procedure, shortened: as §2

MFM-223 [27] = assay: as above
Procedure, shortened: as §2

BT-549 [28] = assay: as above
Procedure, shortened: as §2

MDA-MB-231 [29] = assay: as above
Procedure, shortened: as §2

CAL-148 [30] = assay: as above
Procedure, shortened: as §2

CAL-51 [31] = assay: as above
Procedure, shortened: as §2

Hs578T [32] = assay: as above
Procedure, shortened: as §2

MCF-10A [33] = assay: as above
Procedure, shortened: as §2

HDQ-P1 [34] = assay: as above
Procedure, shortened: as §2

CAL-120 [35] = assay: as above
Procedure, shortened: as §2

HCC1937 [36] = assay: as above
Procedure, shortened: as §2

| SMILES | normalised response (BT-474 [1]) | normalised response (MDA-MB-468 [2]) | normalised response (HCC1143 [3]) | normalised response (CAL-85-1 [4]) | normalised response (MDA-MB-436 [5]) | normalised response (DU-4475 [6]) | normalised response (SK-BR-3) | normalised response (MDA-MB-453 [7]) | normalised response (HCC1599 [8]) | normalised response (MFM-223 [9]) | normalised response (HCC1937 [10]) | normalised response (BT-549 [11]) | normalised response (MDA-MB-231 [12]) | normalised response (CAL-148 [13]) | normalised response (CAL-51 [14]) | normalised response (Hs578T [15]) | normalised response (MCF-10A [16]) | normalised response (HDQ-P1 [17]) | normalised response (CAL-120 [18]) | normalised response (BT-474 [19]) | normalised response (MDA-MB-468 [20]) | normalised response (HCC1143 [21]) | normalised response (CAL-85-1 [22]) | normalised response (MDA-MB-436 [23]) | normalised response (DU-4475 [24]) | normalised response (MDA-MB-453 [25]) | normalised response (HCC1599 [26]) | normalised response (MFM-223 [27]) | normalised response (BT-549 [28]) | normalised response (MDA-MB-231 [29]) | normalised response (CAL-148 [30]) | normalised response (CAL-51 [31]) | normalised response (Hs578T [32]) | normalised response (MCF-10A [33]) | normalised response (HDQ-P1 [34]) | normalised response (CAL-120 [35]) | normalised response (HCC1937 [36]) |
| --- | --- | --- | --- | --- | --- | --- | --- | --- | --- | --- | --- | --- | --- | --- | --- | --- | --- | --- | --- | --- | --- | --- | --- | --- | --- | --- | --- | --- | --- | --- | --- | --- | --- | --- | --- | --- | --- |
| Nc1ccn([C@@H]2O[C@H](CO)[C@@H](O)[C@@H]2O)c(=O)n1 [Cytarabine] (100 nM) | 97.3% | 94.6% | 98.8% | 96.5% | 95.1% | 90.4% | 80.1% | 141% | 88.6% | 95.3% | 98.9% | 94% | 99% | 74.7% | 85.8% | 96.7% | 110% | 96.7% | 101% | 104% | 103% | 99.4% | 103% | 81.4% | 112% | 108% | 111% | 102% | 113% | 115% | 75.5% | 88.1% | 106% | 102% | 101% | 109% |  |
| C[C@]1(c2nc3c(C(N)=O)cccc3[nH]2)CCCN1 [Veliparib] (100 nM) | 98.3% | 96.5% | 100% | 105% | 99% | 103% | 95.2% | 102% | 102% | 98.6% | 101% | 101% | 105% | 96.4% | 76.4% | 102% | 96.5% | 102% | 96.5% | 101% | 107% | 95.9% | 105% | 61.1% | 102% | 103% | 115% | 108% | 108% | 95.9% | 103% | 96.9% | 111% |  | 109% | 98.3% | 87.8% |
| C=CCNC1=C2C[C@@H](C)C[C@H](OC)[C@H](O)[C@@H](C)/C=C(\C)[C@H](OC(N)=O)[C@@H](OC)/C=C\C=C(/C)C(=O)NC(=CC1=O)C2=O [Tanespimycin] (100 nM) | 99.3% | 97.3% | 49.5% | 98.8% | 47.3% | 86.4% | 44.2% | 27.9% | 93.8% | 53.7% | 70.8% | 47.2% | 95.9% | 85.5% | 47.6% | 66.7% | 50% | 61.1% | 85.8% | 76.6% | 111% | 90.8% | 74.2% | 67.8% | 93.8% | 84.5% | 103% | 99% | 91.7% |  | 71.8% | 82.5% | 100% | 69.5% | 81.7% | 90.5% | 98.7% |
| CN1CCC(COc2cnc(-c3cccc(Cn4nc(-c5cccc(C#N)c5)ccc4=O)c3)nc2)CC1 (10 nM) | 96.7% | 93.2% | 101% | 97.2% | 89% | 99% | 80.8% | 89.2% | 100% | 89.8% | 94.6% | 104% | 102% | 92.9% | 64.8% | 92.8% | 94.9% | 96.4% | 98.8% | 94.1% | 73.8% | 89.6% | 108% | 88.8% | 99.5% | 100% | 101% | 103% | 103% | 98.5% | 108% | 83.9% | 76.3% | 70% | 115% | 95.4% |  |
